# Measurements from publication PMC11885506, “Evaluation of a non-animal toolbox informed by adverse outcome pathways for human inhalation safety” (Frontiers in Toxicology, 2025).
# “Also recorded” adds a separate entry of the source. Counter-ions that a name gives are not always drawn.
# Assays:
# [1] = test system: NCI-292 and normal human bronchial epithelial cells; parameters: method as in Deshmukh et al., 2005; conditions: ref Deshmukh et al., 2005; cited from earlier work
# MucilAir™-HF tissues [2] = assay: Mucin-5AC (Muc5AC) immunohistochemistry, goblet cells, MucilAir-HF model; assay type: cell-based, human; conditions: 30 min/day exposure, average ± standard deviation
# Description: (§1) Tissues were handled as recommended by manufacturer’s instruction.
# The presence of goblet cells was assessed through immunohistochemistry analysis for mucin-5AC protein (Muc5AC) detection. IL-13 and cytomix were used as positive controls (see item 2.5.2 for additional details). On last day of experiment (day 12), cultures (n = 3 tissues/group) were rinsed in PBS and fixed by immersion in 4% formaldehyde for 20 min. Fixed tissues were embedded into paraffin, sectioned, and processed for staining on paraffin sections. The immunostaining of the sections was performed with the Benchmark automated platform (Ventana-Roche, Hoffmann-La Roche Ltd, Basel, Switzerland) and the Autostainer Link 48 (Agilent, Santa Clara, CA. United States) with the detection kit Ultraview DAB (DAB chromogeny, Hoffmann-La Roche Ltd). Sections were pre-treated using heat mediated antigen retrieval with sodium citrate buffer, pH 6, for 20 min. The section was then incubated with recombinant anti-mucin 5AC antibody (ab3649, Abcam) for 1 h at room temperature, followed by biotinylated secondary antibody (Dako) and HRP detection (HRP conjugated ABC system, Vector Laboratories), according to manufacturer’s instruction. The section was then counterstained with hematoxylin (Sigma-Aldrich) and mounted with DPX, a synthetic non-aqueous mounting medium for microscopy. Digital images of the slides were then acquired, and quantitative image analysis performed using Image Pro Plus 6.2 (Media Cybernetics) to quantify the goblet cells on a section. The whole images of stained sections were scanned, and an average 15 images/section were analysed. The results are the ratio between the mucin 5AC stained area and the total surface area of the epithelium on the section.
# NCI-H292 cells = conditions: 0.03 µM for 4 h; ref Deshmukh et al., 2005; cited from earlier work
# [3] = test system: human bronchial epithelial cells (BEAS-2B); parameters: method as in Sthijns et al., 2014; conditions: 3-10 µM, 30-min exposure; ref Sthijns et al., 2014; cited from earlier work
# EpiAlveolar™ tissues [4] = assay: Histology and immunohistochemistry, EpiAlveolar model, Laboratory 2; conditions: Laboratory 2, 12-day period
# Description: To evaluate the quality of EpiAlveolar™ tissues over the 12-day experimental period, histological and immunohistochemistry assessments for detection of pan-cytokeratin, vimentin, aquaporin 5, pro-surfactant C, CD68, caspase-3, and/or αSMA were performed by Laboratories 1 and 2.
# Tissues were kept in 10% phosphate buffered formalin at 4°C for up to 48 h. Samples were then fixed in 70% ethanol and two strips of membrane were trimmed from each sample, processed, and paraffin-embedded to be cut at 5 µm thick sections and mounted to glass slides. The slides were then dewaxed in xylene, hydrated using graded industrial methylated spirit (70-100%) and stained with H&E for light microscope analysis.
# For immunohistochemistry analysis, tissue sections-containing microscope slides were obtained and processed using a Discovery Ultra Staining System (Roche), according to manufacturer’s instructions, except for anti-CD68 staining that was manually performed. The slides were incubated at 60°C for 8 min and then deparaffinized at 69°C for 24 min. After that, slides were incubated with inhibitor CM or peroxidase blocking solution (for anti-CD68 staining) for 8 min at room temperature. The slides were then incubated at room temperature with the following primary monoclonal antibodies, following manufacturer’s instructions: anti-α smooth muscle actin (αSMA) at 1:500 (Leica Microsystems Ltd), anti-CD68 at 1:3000 for macrophages (11192-T24, Sino Biological), anti-pro-surfactant C protein at 1:1000 (AB3786, Sigma-Aldrich), anti-caspase-3 at 1:10000 (AB4051, Abcam), anti-aquaporin 5 (31661, Invitrogen), anti-pan-cytokeratin for epithelial cells (760-2595, Roche), and anti-vimentin for mesenchymal cells (790-2917, Roche). […]
# A board-certified pathologist evaluated the changes (epithelial thinning, separation/detachment areas, necrosis, collagen, and presence of apoptotic cells, myofibroblasts, and type II pneumocytes) using a semi-quantitative scoring system (Table 2).
# [5] = human, therapeutic dose, infusion of 60 mg/m^2 for 40 min; ref Barpe et al. (2010); cited from earlier work
# EpiAlveolar™ tissues [6] = assay: High-throughput transcriptomics (RNA-seq, PLIER latent variables), EpiAlveolar model, Laboratory 2; assay type: cell-based, human; conditions: for MinPoD: Transcriptomics, biomarker 111
# EpiAlveolar™ tissues [7] = assay: Cytokine and chemokine measurements (Luminex), EpiAlveolar model, Laboratory 2; assay type: cell-based, human; conditions: for MinPoD: EpiAlveolar™ model Laboratory-2
# Text: (§2) EpiAlveolar™ system was obtained from MatTek Corporation (Ashland, MA, United States, cat. no. ALV-100-FT-MAC, ALV-100-FT-MAC-PE12). According to the supplier, the tissue systems were derived from primary human alveolar epithelial cells and primary pulmonary fibroblasts, both from a same healthy donor, and pulmonary endothelial cells from another healthy donor, and THP-1 cell line derived macrophages. These tissues were differentiated by the manufacturer prior to shipping to the testing facilities. […] TEER was measured and only systems with confirmed quality of the tight junction barrier (>300 Ω.cm^2) and with approved morphological inspection were used in the experiments.
# (§3) Vehicle control groups were also tested in parallel. Except for Doxorubicin (which underwent a 6-day chemical exposure + 6-day without exposure), exposures were conducted daily, on 12 consecutive days with different concentrations, through aerosol, apical or basolateral liquid exposure methods (Table 2). […] Each of the insert holders of the instrument base module was filled with Hanks’ Balanced Salt solution (HBSS) or PBS prior to placing the tissue inserts. Then, each test item solution/suspension was placed into the nebulizer reservoir for aerosol material exposure. The nebulizer was activated until the material solution/suspension was consumed and discharged into the main exposure chamber and allowed to fully gravity deposit out of the Cloud 12 (determined using a QCM). After exposure, the tissues were placed back into their multi-well culture plates containing the same medium, a further aliquot of media was added apically (20 µL for Akemi, 75 µL for all others except LPS) and returned to incubator until next exposure. Media used during the 6- or 12-day experimental period was prepared without Supplement X by MatTek. In medium exposure, the apical or basolateral liquid of each tissue was removed and replaced with each test item medium solution/suspension and returned to the incubator until the next exposure. After the beginning of the exposure cycles, tissues were only re-fed with new culture medium every 3-4 days.
# In Laboratory 2, apical culture media samples of the tissues were collected, stored at −80°C until shipment, in dry ice with temperature monitor control, to Unilever SERS, where the analyses were performed. Upon receipt, samples were again stored in the −80°C until the analysis using Human Luminex® Discovery Assay kits (R&D Systems). The same readouts investigated for MucilAir™-HF tissue samples were quantified in these samples.
# [8] = cited from earlier work
# EpiAlveolar™ tissues [9] = assay: Cytokine and chemokine measurements (Luminex), EpiAlveolar model, Laboratory 1; assay type: cell-based, human; conditions: for MinPoD: EpiAlveolar™ model Laboratory-1
# Text: as §2, §3
# In Laboratory 1, basal media samples collected from the tissues were collected and stored at ≤ −60°C until analysis. For cytokine/chemokine measurements, 17-Plex, duplex and single-plex analyte detection panels were run on the samples using Human Luminex™ Multiplex Immunoassay kits (R&D Systems). The analytes quantified were TNF-α, IL-6, MMP-9, MMP-3, MMP-1, MMP-2, CXCL10, CCL2, IFN-γ, IL-1ra, CCL7, IL-1a, CCL26, CXCL9, VCAM-1, ICAM-1, and CXCL11 in a 17-plex assay; whereas IL-8 and Serpin E1 in a duplex assay and TGF-β1 in a single-plex assay.
# EpiAlveolar™ model = assay: Bioactivity exposure ratio (BER): lowest in vitro PoD of EpiAlveolar readouts / lower respiratory tract exposure estimate or Cmax; parameters: species or system human; conditions: Plasma
# Description: (§4) Concentration and time-dependent changes in the bioactivity readout data were analyzed using a nonlinear state space model, based on the work of [Svensson and Schön (2017)]. […] All bioactivity readouts were included in the analysis (where available), i.e., measurements for tissue integrity loss (TEER) and functionality (MCC, CBF, and mucin secretion), cytokine/chemokine secretion, and the transcriptional LV values obtained using PLIER. The datasets were grouped so that a single state space model was used to capture all the responses (across time, concentration, and test material) for a single readout obtained within a particular study (laboratory/tissue model). Data were transformed to the log base 10 scale and normalized using z-scores, so that for a given readout Ytij from a laboratory/tissue model, the corresponding normalized value was given by y^tij=⁡log⁡10(Ytij)−μ)/σ . Here, the indexes i,j,t correspond to the different test materials, concentrations and timepoints, μ and σ are the sample mean and standard deviation of the control readout values obtained for the first timepoint. All measurement were then scaled so that the maximum median value across different replicates was one for all timepoints, readouts and test materials within a given laboratory/tissue model.
# The model consists of state variables xti,j , response variables ytij and the concentrations of material c^i,j . The response variables yti,j represent the normalized (see below) readout values at timepoint t for material exposure i,j . The mean of the response variable is given by xti,j , so that yti,j∼xti,j+et , where et represents random fluctuations in the readout values, due to observational noise, which are taken to be normally distributed. Dynamical changes in state values are given by xti,j=fxt−1i,j,cti,j+vt . Here, fxt−1i,j,c^i,j is a non-linear function that represents interactions between different state variables and the perturbation caused by the test material at a given exposure at concentration c^i,j, and vt represents random fluctuations in state dynamics (which are also normally distributed). Following [Svensson and Schön (2017)], the nonlinear terms are based on an approximation to Gaussian processes, which are obtained using a basis function expansion-based approach. Inference of the model parameters was performed in the framework of Bayesian inference, wherein random draws of the posterior distribution were obtained using Sequential Monte Carlo (SMC), see [Svensson and Schön (2017)] and [Chopin and Papaspiliopoulos (2020)]. For each state space model representing a particular laboratory/readout dataset, SMC simulation was run for three chains at 5,000 iterations each, and first 1,000 iterations were discarded from the final posterior samples. The Rhat convergence diagnostic (Rhat < 1.1) was used to ensure the simulations had converged.
# The state space model and posterior model parameter samples were then used to construct posterior predictive distributions of the response of each readout to a given test material for a given concentration and timepoint (see Figure 4). The posterior predictive distributions were used to estimate various statistics on the readout responses (median, 95% credible range etc.), PoDs, Concentration Dependency Scores (CDS) and two Effect Scores (increase and decrease). PoDs were defined as the concentration at which the mean response to a test material exceeded the 95% credible range of control for each timepoint (otherwise the mean response remains within the range of control). PoDs distribution for each timepoint, test material and readout, from which different statistical measures (e.g., the median, 95% credible range etc.) were calculated. The CDS was designed to provide confidence metric in whether an effect in the data was truly concentration dependent.
# MucilAir™-HF tissues [10] = assay: TEER analysis of tissue barrier integrity, MucilAir-HF model; conditions: Day 4, biomarker TEER
# Description: (§5) The MucilAir™-HF system (EP11MD) and ready-to-use chemically-defined, serum-free culture medium (EP04AM) were obtained from Epithelix Sàrl (Geneva, Switzerland). Tissues were handled as recommended by manufacturer’s instruction. […] After differentiation for 42 up to 81 days at the air-liquid interface (ALI) under standard culture conditions (37°C ± 1°C in a humidified atmosphere of 5% ± 1% CO2 in air), tissues were washed 3 days before first exposure and each insert was inspected for beating cilia and mucus production. This washing step (one or twice with PBS) were performed to remove accumulated mucus and cell debris to minimize the risk of interference with the toxicity tests. Over 12-day experimental period, washing steps as well as media changes was performed every 2-3 days.
# (§6) For toxicity testing performed over a 12-day experimental period, tissues were daily exposed to 3 different concentrations of each test material for 30 min or 6 h (for detailed information on each material see Table 1). […]
# (§7) TEER measurements were performed daily after test item exposure to evaluate tissue barrier function. Tissues were washed, 200 µL of buffered saline solution was added to the apical compartment of MucilAir™-HF cultures, and resistance was measured using an EVOMX volt-ohmmeter with chopstick style probes (World Precision Instruments, Stevenage, UK). […]
# MucilAir™-HF tissues [11] = test system: MucilAir™-HF tissues
# Description: as §5, §6, §7
# MucilAir™-HF tissues [12] = assay: Cytokine and chemokine measurements (Luminex), MucilAir-HF model; assay type: cell-based, human; conditions: for Cytokines/chemokines modulated (in words): MucilAir-HF; for MinPoD: MucilAir™-HF model, biomarker IL-1ra
# Description: as §1
# Basolateral medium samples of the tissue cultures were collected and stored at −80°C until analysis. The following cytokines/chemokines were quantified using customized Human Luminex® Discovery Assay kits (R&D Systems): chemokine (C-C motif) ligand (CCL) 2, CCL7, CCL26, C-X-C motif chemokine ligand (CXCL) 10, CXCL11, intercellular adhesion molecule-1 (ICAM-1), IL-1α, IL-6, IL-8, matrix metalloproteinase (MMP)-1, MMP-2, MMP-3, MMP-7, MMP-9, osteopontin, interferon (IFN)-γ, IL-1 receptor antagonist (IL-1Ra), urokinase-type plasminogen activator receptor (uPAR), tumour necrosis factor (TNF)-α, urokinase (uPA), serpin E1, tissue inhibitor of metalloproteinase 1 (TIMP-1), and TGF-β1. Samples were measured in technical triplicates according to the manufacturer’s recommendation using a Luminex Bio-Plex® 200 RUO System ([…]).
# MucilAir™-HF tissues [13] = test system: MucilAir™-HF tissues; remark: listed apart in the source
# Description: as §5
# For toxicity testing performed over a 12-day experimental period, tissues were daily exposed to 3 different concentrations of each test material for 30 min or 6 h (for detailed information on each material see Table 1). […] Tissues were exposed by test materials via nebulization, liquid apical application, or liquid basal application. These differences in the exposure type were due to solubility of the test material, route of exposure (inhaled or systemic), or comparison with previous publications. […]
# [14] = test system: human airway smooth muscle cells; parameters: method as in McKay et al., 2000; conditions: 1-500 U/mL for 24h; ref McKay et al., 2000; cited from earlier work
# [15] = test system: Beas2B, HFL-1 and H292 cells; parameters: method as in Gerloff et al., 2017; conditions: 10 ng/mL for 24h; ref Gerloff et al., 2017; cited from earlier work
# [16] = day 12, High 1 concentration (third of the tested concentrations)
# [17] = day 12, Low concentration (first of the tested concentrations)
# [18] = day 12, Medium concentration (second of the tested concentrations)
# Description for MucilAir™-HF model: as §4
# The model consists of state variables xti,j , response variables ytij and the concentrations of material c^i,j . The response variables yti,j represent the normalized (see below) readout values at timepoint t for material exposure i,j . The mean of the response variable is given by xti,j , so that yti,j∼xti,j+et , where et represents random fluctuations in the readout values, due to observational noise, which are taken to be normally distributed. Dynamical changes in state values are given by xti,j=fxt−1i,j,cti,j+vt . […] For each state space model representing a particular laboratory/readout dataset, SMC simulation was run for three chains at 5,000 iterations each, and first 1,000 iterations were discarded from the final posterior samples. […]
compound,measurement,setting,value
C=CC=O [Acrolein],MMP9 mRNA expression,[1],increase of MMP9 mRNA expression
same,% of Muc5AC area,MucilAir™-HF tissues [2]; [16],5.21 ± 2.16%
same,% of Muc5AC area,MucilAir™-HF tissues [2]; [17],3.66 ± 1.21%
same,% of Muc5AC area,MucilAir™-HF tissues [2]; [18],7.40 ± 1.45%
same,MUC5AC mRNA expression,NCI-H292 cells,MUC5AC mRNA expression increase
same,Cytotoxicity (LDH leakage),[3],concentration-dependent cytotoxicity through LDH leakage increase
"COc1cccc2c1C(=O)c1c(O)c3c(c(O)c1C2=O)C[C@@](O)(C(=O)CO)C[C@@H]3O[C@H]1C[C@H](N)[C@H](O)[C@H](C)O1 [Doxorubicin, Doxorubicin hydrochloride]",Histological changes compared to vehicle and control groups (in words),EpiAlveolar™ tissues [4],minor increase in epithelial thinning and a minor increase in the numbers of degenerate cells were observed by day 4
same,Plasma conc,[5],Plasma conc 1.3 μM
same,"Median change, 171 - INTRAFLAGELLAR_TRANSPORT",EpiAlveolar™ tissues [6],0.04
same,MinPoD,EpiAlveolar™ tissues [6]; Day 1,0.002879 μg/cm2
same,MinPoD,EpiAlveolar™ tissues [6]; Day 4,0.00076 μg/cm2
same,MinPoD,EpiAlveolar™ tissues [6]; Day 8,0.0007958 μg/cm2
same,MinPoD,EpiAlveolar™ tissues [6]; Day 12,0.000701 μg/cm2
same,Cytokines/chemokines modulated (in words),"EpiAlveolar™ tissues [7]; EpiAlveolar, Laboratory 2",tendency towards downregulation of the inflammatory and degradation of extracellular matrix/fibrosis responses
same,MinPoD,"EpiAlveolar™ tissues [7]; Day 1, biomarker CCL2",0.2843 μg/cm2
same,MinPoD,"EpiAlveolar™ tissues [7]; Day 4, biomarker CCL2",0.1115 μg/cm2
same,MinPoD,"EpiAlveolar™ tissues [7]; Day 8, biomarker CCL7",0.07617 μg/cm2
same,MinPoD,"EpiAlveolar™ tissues [7]; Day 12, biomarker CCL7",0.06864 μg/cm2
same,Risk,[8]; Scenario Plasma,High
same,Risk classification,"[8]; per benchmark chemical-exposure scenario (product and exposure scenario of the same line), based on historical safety decisions, ref References column of Table 3",High
same,Cytokines/chemokines modulated (in words),"EpiAlveolar™ tissues [9]; EpiAlveolar, Laboratory 1",tendency towards downregulation of the inflammatory and degradation of extracellular matrix/fibrosis responses; also recorded: dual effect with the anti-inflammatory IL-1ra response
same,MinPoD,"EpiAlveolar™ tissues [9]; Day 4, biomarker MMP-3",0.1566 μg/cm2
same,MinPoD,"EpiAlveolar™ tissues [9]; Day 8, biomarker MMP-3",0.1333 μg/cm2
same,MinPoD,"EpiAlveolar™ tissues [9]; Day 12, biomarker MMP-9",0.1298 μg/cm2
same,BER_min,"EpiAlveolar™ model; Day 1, EpiAlveolar™ model Laboratory-2",0.2187
same,BER_min,"EpiAlveolar™ model; Day 1, Transcriptomics",0.002215
same,BER_min,"EpiAlveolar™ model; Day 4, EpiAlveolar™ model Laboratory-1",0.1204
same,BER_min,"EpiAlveolar™ model; Day 4, EpiAlveolar™ model Laboratory-2",0.08579
same,BER_min,"EpiAlveolar™ model; Day 4, Transcriptomics",0.0005847
same,BER_min,"EpiAlveolar™ model; Day 8, EpiAlveolar™ model Laboratory-1",0.1025
same,BER_min,"EpiAlveolar™ model; Day 8, EpiAlveolar™ model Laboratory-2",0.05859
same,BER_min,"EpiAlveolar™ model; Day 8, Transcriptomics",0.0006121
same,BER_min,"EpiAlveolar™ model; Day 12, EpiAlveolar™ model Laboratory-1",0.09985
same,BER_min,"EpiAlveolar™ model; Day 12, EpiAlveolar™ model Laboratory-2",0.0528
same,BER_min,"EpiAlveolar™ model; Day 12, Transcriptomics",0.0005393
Benzalkonium chloride [BAC],% of Muc5AC area,MucilAir™-HF tissues [2]; [16],3.98 ± 1.12%
same,% of Muc5AC area,MucilAir™-HF tissues [2]; [17],5.75 ± 0.93%
same,% of Muc5AC area,MucilAir™-HF tissues [2]; [18],5.37 ± 1.06%
same,MinPoD,MucilAir™-HF tissues [10],2.6 μg/cm2
same,Tissue barrier integrity (TEER) change (in words),MucilAir™-HF tissues [11],trigger changes in tissue barrier integrity
same,Cytokines/chemokines modulated (in words),MucilAir™-HF tissues [12]; 30 min/day exposure,"increase in CCL7, IL-1α and IL-6; also recorded: downregulation of MMP-7 only"
same,Cytokines/chemokines modulated (in words),MucilAir™-HF tissues [12]; exposure time/day not given,IL-1ra showed upregulated levels
same,MinPoD,MucilAir™-HF tissues [12]; Day 8,1.822 μg/cm2
same,MinPoD,MucilAir™-HF tissues [12]; Day 12,1.409 μg/cm2
Carboxymethylcellulose sodium salt [CMC],MCC change (in words),MucilAir™-HF tissues [13],concentration-dependent reduction in the MCC only on day 1
same,BER_min,MucilAir™-HF model,2.393
Recombinant human TNF-α (carrier-free),% of Muc5AC area,MucilAir™-HF tissues [2]; [16],5.21 ± 3.28%
same,% of Muc5AC area,MucilAir™-HF tissues [2]; [17],8.18 ± 1.54%
same,% of Muc5AC area,MucilAir™-HF tissues [2]; [18],9.15 ± 6.07%
same,IL-6 production protein and mRNA transcript levels,[14],significant increase of IL-6 production protein and mRNA transcript levels
same,IL-8 protein levels,[15],increased IL-8 protein levels
same,Cytokines/chemokines modulated (in words),MucilAir™-HF tissues [12]; 30 min/day exposure,upregulation of CCL2 and osteopontin
